The results in this text go back to PubChem BioAssay AID1794803 (Yongcheng Song lab at Baylor College of Medicine, 2022).

Active and inactive are the calls of the source.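 The calls were made as follows: active = EC50 under 50 µM in a live-cell viability test; inactive = the rest.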 Where only a bound is given, the exact number is not on record here.

The EC50 is the concentration giving half of the maximal effect.

The test system of this test is NB4 APL cells, proliferation, XTT absorbance. Put plainly: growth inhibition of NB4 leukemia cells, dose response, AHD inhibitor project, cell-based, XTT viability (AID 1794803). On the technique in general: Formazan colour is commonly taken as a measure of viable cells.
As for `NC(=O)c1ccc(-c2ccc3cc(C(=O)NCC4CCNCC4)sc3c2)cc1`, the EC50 is > 51 µM (inactive).

With `O=C(NCC1CCNCC1)c1cc2cc(-c3ccc(N4CCCCC4)cc3)ccc2s1`, the concentration for a half-maximal effect (EC50) was 9.4 µM.

For the molecule `O=C(NCC1CCNCC1)c1cc2ccc(-c3ccc(N4CCCCC4)cc3)cc2s1`, the EC50 is 5.3 µM.

With `O=C(NCC1CCNCC1)c1cc2ccc(-c3ccc(N4CCCC4)cc3)cc2s1`, the concentration giving a half-maximal response (EC50) is 10 µM.

Turning to `O=C(NCC1CCNCC1)c1cc2cc(-c3ccc(N4CCCCC4)cc3)ccc2[nH]1`, the EC50 was > 51 µM (inactive).

With `O=C(NCC1CCNCC1)c1c[nH]c2cc(-c3ccc(N4CCCCC4)cc3)ccc12`, the EC50 was 32 µM.

Consider `O=C(NCC1CCNCC1)c1coc2cc(-c3ccc(N4CCCCC4)cc3)ccc12`, for which the EC50 was 11 µM.

As to `NCc1ccc(-c2ccc3cc(C(=O)NCC4CCNCC4)oc3c2)cc1`, the EC50 is > 51 µM (inactive).

On to `O=C(NCC1CCNCC1)c1cc2cc(-c3cn[nH]c3)ccc2[nH]1`, for which the EC50 is > 51 µM (inactive).

As for `O=C(NCC1CCNCC1)c1c[nH]c2cc(-c3ccc(N4CCCC4)cc3)ccc12`, the EC50 was 50 µM.
